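Interpolation was linear, between the two tested concentrations surrounding the appropriate level; five concentrations were tested over 48 hours in 96-well plates. Definition used: TGI = concentration required for complete inhibition of growth.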
How the values were obtained:
Assay in all cases: growth of human tumour cells (NCI), 48 h
A498 renal = system: A498 renal
EKVX NSCLC = system: EKVX NSCLC
OVCAR-4 ovarian = system: OVCAR-4 ovarian
KM12 colon = system: KM12 colon
TK-10 renal = system: TK-10 renal
PC-3 prostate = system: PC-3 prostate
UACC-62 melanoma = system: UACC-62 melanoma
HCT-116 colon = system: HCT-116 colon
MDA-N = system: MDA-N
HOP-62 NSCLC = system: HOP-62 NSCLC
MOLT-4 leukemia = system: MOLT-4 leukemia
OVCAR-3 ovarian = system: OVCAR-3 ovarian
M14 melanoma = system: M14 melanoma
K-562 leukemia = system: K-562 leukemia
BT-549 breast = system: BT-549 breast
T-47D breast = system: T-47D breast
HCC-2998 colon = system: HCC-2998 colon
SK-MEL-5 melanoma = system: SK-MEL-5 melanoma
SR leukemia = system: SR leukemia
OVCAR-5 ovarian = system: OVCAR-5 ovarian
SF-268 CNS = system: SF-268 CNS
MDA-MB-231 breast = system: MDA-MB-231 breast
UO-31 renal = system: UO-31 renal
CCRF-CEM leukemia = system: CCRF-CEM leukemia
SK-MEL-2 melanoma = system: SK-MEL-2 melanoma
ACHN renal = system: ACHN renal
COLO 205 colon = system: COLO 205 colon
NCI-H226 lung = system: NCI-H226 lung
IGROV1 ovarian = system: IGROV1 ovarian
RPMI-8226 leukemia = system: RPMI-8226 leukemia
HOP-92 NSCLC = system: HOP-92 NSCLC
HCT-15 colon = system: HCT-15 colon
UACC-257 melanoma = system: UACC-257 melanoma
MALME-3M melanoma = system: MALME-3M melanoma
CAKI-1 renal = system: CAKI-1 renal
LOX IMVI melanoma = system: LOX IMVI melanoma
RXF 393 renal = system: RXF 393 renal
MCF7 breast = system: MCF7 breast
SK-OV-3 ovarian = system: SK-OV-3 ovarian
OVCAR-8 ovarian = system: OVCAR-8 ovarian
NCI-H460 lung = system: NCI-H460 lung
786-0 renal = system: 786-0 renal
SNB-19 CNS = system: SNB-19 CNS
HT29 colon = system: HT29 colon
NCI-H23 lung = system: NCI-H23 lung
MDA-MB-435 = system: MDA-MB-435
SN12C renal = system: SN12C renal
A549 NSCLC = system: A549 NSCLC
SNB-75 CNS = system: SNB-75 CNS
SK-MEL-28 melanoma = system: SK-MEL-28 melanoma
DU-145 prostate = system: DU-145 prostate
U251 CNS = system: U251 CNS
SW-620 colon = system: SW-620 colon
NCI/ADR-RES ovarian = system: NCI/ADR-RES ovarian
SF-295 CNS = system: SF-295 CNS
SF-539 CNS = system: SF-539 CNS
HL-60(TB) leukemia = system: HL-60(TB) leukemia

SMILES: COc1ccc(-c2cc(-c3ccccc3)nc(N)c2-c2ccc3ccccc3c2)cc1
- TGI (A498 renal): 5.08 µM
- TGI (EKVX NSCLC): 3.66 µM
- TGI (OVCAR-4 ovarian): 2.42 µM
- TGI (KM12 colon): 3.2 µM
- TGI (TK-10 renal): 11.6 µM
- TGI (PC-3 prostate): 5.45 µM
- TGI (UACC-62 melanoma): 2.96 µM
- TGI (HCT-116 colon): 2.5 µM
- TGI (MDA-N): 3.17 µM
- TGI (HOP-62 NSCLC): 4.8 µM
- TGI (MOLT-4 leukemia): 7.38 µM
- TGI (OVCAR-3 ovarian): 5.08 µM
- TGI (M14 melanoma): 5.68 µM
- TGI (K-562 leukemia): > 100 µM
- TGI (BT-549 breast): 3.09 µM
- TGI (T-47D breast): 3.38 µM
- TGI (HCC-2998 colon): 3.29 µM
- TGI (SK-MEL-5 melanoma): 3.27 µM
- TGI (SR leukemia): 7.31 µM
- TGI (OVCAR-5 ovarian): 3.71 µM
- TGI (SF-268 CNS): 9.2 µM
- TGI (MDA-MB-231 breast): 3.17 µM
- TGI (UO-31 renal): 5.13 µM
- TGI (CCRF-CEM leukemia): > 100 µM
- TGI (SK-MEL-2 melanoma): 3.88 µM
- TGI (ACHN renal): 4.77 µM
- TGI (COLO 205 colon): 3.21 µM
- TGI (NCI-H226 lung): 2.99 µM
- TGI (IGROV1 ovarian): 3.11 µM
- TGI (RPMI-8226 leukemia): 4.74 µM
- TGI (HOP-92 NSCLC): 2.91 µM
- TGI (HCT-15 colon): 2.92 µM
- TGI (UACC-257 melanoma): 3.52 µM
- TGI (MALME-3M melanoma): 2.75 µM
- TGI (CAKI-1 renal): 15.1 µM
- TGI (LOX IMVI melanoma): 3.1 µM
- TGI (RXF 393 renal): 3.39 µM
- TGI (MCF7 breast): 3.36 µM
- TGI (SK-OV-3 ovarian): 17.4 µM
- TGI (OVCAR-8 ovarian): 3.09 µM
- TGI (NCI-H460 lung): 2.9 µM
- TGI (786-0 renal): 3.1 µM
- TGI (SNB-19 CNS): 2.57 µM
- TGI (HT29 colon): 2.28 µM
- TGI (NCI-H23 lung): 3.71 µM
- TGI (MDA-MB-435): 4.68 µM
- TGI (SN12C renal): 3.43 µM
- TGI (A549 NSCLC): 5.39 µM
- TGI (SNB-75 CNS): 5 µM

SMILES: O=C1C2=Cc3ccccc3OC2(O)Oc2cc(O)cc(O)c21 (stereo unspecified)
- TGI (A498 renal): > 100 µM
- TGI (EKVX NSCLC): > 100 µM
- TGI (SK-MEL-28 melanoma): > 100 µM
- TGI (OVCAR-4 ovarian): > 100 µM
- TGI (KM12 colon): > 100 µM
- TGI (TK-10 renal): > 100 µM
- TGI (PC-3 prostate): > 100 µM
- TGI (DU-145 prostate): > 100 µM
- TGI (UACC-62 melanoma): > 100 µM
- TGI (HCT-116 colon): > 100 µM
- TGI (MDA-N): > 100 µM
- TGI (HOP-62 NSCLC): > 100 µM
- TGI (MOLT-4 leukemia): > 100 µM
- TGI (M14 melanoma): > 100 µM
- TGI (K-562 leukemia): > 100 µM
- TGI (BT-549 breast): > 100 µM
- TGI (T-47D breast): > 100 µM
- TGI (HCC-2998 colon): > 100 µM
- TGI (SK-MEL-5 melanoma): > 100 µM
- TGI (U251 CNS): > 100 µM
- TGI (OVCAR-5 ovarian): > 100 µM
- TGI (SF-268 CNS): > 100 µM
- TGI (MDA-MB-231 breast): > 100 µM
- TGI (CCRF-CEM leukemia): > 100 µM
- TGI (SW-620 colon): > 100 µM
- TGI (SK-MEL-2 melanoma): > 100 µM
- TGI (ACHN renal): > 100 µM
- TGI (NCI/ADR-RES ovarian): > 100 µM
- TGI (COLO 205 colon): > 100 µM
- TGI (NCI-H226 lung): > 100 µM
- TGI (IGROV1 ovarian): > 100 µM
- TGI (SF-295 CNS): > 100 µM
- TGI (RPMI-8226 leukemia): > 100 µM
- TGI (HOP-92 NSCLC): > 100 µM
- TGI (UACC-257 melanoma): > 100 µM
- TGI (MALME-3M melanoma): > 100 µM
- TGI (CAKI-1 renal): > 100 µM
- TGI (LOX IMVI melanoma): > 100 µM
- TGI (RXF 393 renal): > 100 µM
- TGI (MCF7 breast): > 100 µM
- TGI (SK-OV-3 ovarian): > 100 µM
- TGI (OVCAR-8 ovarian): > 100 µM
- TGI (NCI-H460 lung): > 100 µM
- TGI (786-0 renal): > 100 µM
- TGI (HT29 colon): > 100 µM
- TGI (SF-539 CNS): > 100 µM
- TGI (NCI-H23 lung): > 100 µM
- TGI (MDA-MB-435): > 100 µM
- TGI (SN12C renal): > 100 µM
- TGI (A549 NSCLC): > 100 µM
- TGI (SNB-75 CNS): > 100 µM

SMILES: CCOP(=O)(OCC)/C(=C\n1c(=S)[nH]c2cc(C)ccc21)C(=O)OC
- TGI (A498 renal): > 100 µM
- TGI (EKVX NSCLC): > 100 µM
- TGI (SK-MEL-28 melanoma): > 100 µM
- TGI (OVCAR-4 ovarian): > 100 µM
- TGI (KM12 colon): > 100 µM
- TGI (TK-10 renal): > 100 µM
- TGI (DU-145 prostate): > 100 µM
- TGI (UACC-62 melanoma): > 100 µM
- TGI (HCT-116 colon): > 100 µM
- TGI (MDA-N): > 100 µM
- TGI (HOP-62 NSCLC): > 100 µM
- TGI (MOLT-4 leukemia): > 100 µM
- TGI (OVCAR-3 ovarian): > 100 µM
- TGI (M14 melanoma): > 100 µM
- TGI (BT-549 breast): > 100 µM
- TGI (T-47D breast): > 100 µM
- TGI (HCC-2998 colon): > 100 µM
- TGI (SK-MEL-5 melanoma): > 100 µM
- TGI (U251 CNS): > 100 µM
- TGI (OVCAR-5 ovarian): > 100 µM
- TGI (SF-268 CNS): > 100 µM
- TGI (MDA-MB-231 breast): > 100 µM
- TGI (UO-31 renal): > 100 µM
- TGI (SW-620 colon): > 100 µM
- TGI (SK-MEL-2 melanoma): > 100 µM
- TGI (ACHN renal): > 100 µM
- TGI (NCI/ADR-RES ovarian): > 100 µM
- TGI (COLO 205 colon): > 100 µM
- TGI (NCI-H226 lung): > 100 µM
- TGI (IGROV1 ovarian): > 100 µM
- TGI (SF-295 CNS): > 100 µM
- TGI (HOP-92 NSCLC): > 100 µM
- TGI (HCT-15 colon): > 100 µM
- TGI (UACC-257 melanoma): > 100 µM
- TGI (CAKI-1 renal): > 100 µM
- TGI (LOX IMVI melanoma): > 100 µM
- TGI (RXF 393 renal): > 100 µM
- TGI (MCF7 breast): > 100 µM
- TGI (SK-OV-3 ovarian): > 100 µM
- TGI (OVCAR-8 ovarian): > 100 µM
- TGI (NCI-H460 lung): > 100 µM
- TGI (786-0 renal): > 100 µM
- TGI (HL-60(TB) leukemia): > 100 µM
- TGI (SNB-19 CNS): > 100 µM
- TGI (HT29 colon): > 100 µM
- TGI (SF-539 CNS): > 100 µM
- TGI (NCI-H23 lung): > 100 µM
- TGI (MDA-MB-435): > 100 µM
- TGI (SN12C renal): > 100 µM
- TGI (A549 NSCLC): > 100 µM
- TGI (SNB-75 CNS): > 100 µM
